Measured values reported in patent publication US20120121540A1 (priority 2007, published 2012).

Assay: HCV replicon assay (luciferase reporter, ET cell line)
Assay type: cell-based
Conditions: Hepatitis C virus, HCV replicon luciferase activity in ET cells
Method in brief: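 EC50 and, via WST-1 cytotoxicity, TC50 were fitted with a Hill-coefficient equation to % inhibition across 10 two-fold dilutions. Compounds at 0.1 nM-[…] with 0.5% DMSO were applied 24 h post-seeding to replicon-bearing ET cells (luc-ubi-neo/NS3-5B, adaptive mutations). Firefly luciferase signal was measured after 48-72 h.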
In the case of COc1ccc(F)c(C2=CCN(C(=O)c3nc4c(C(F)(F)F)cc(-c5ccoc5)cn4c3Cl)CC2)c1F [Compound 616, (3-Chloro-6-furan-3-yl-8-trifluoromethyl-imidazo[1,2-a]pyridin-2-yl)-[4-(2,6-difluoro-3-methoxy-phenyl)-3,6-dihydro-2H-pyridin-1-yl]-methanone], the inhibition at 10 µM is reported as 64.9%. Cc1c(C(=O)NCc2cccs2)nn2c(C)cc(-c3ccccc3)cc12 [Compound 115, 3,7-dimethyl-5-phenyl-pyrazolo[1,5-a]pyridine-2-carboxylic Acid (thiophen-2-ylmethyl)-amide] showed an inhibition at 10 µM of 55.3%. O=C(NCc1cccs1)c1nc2c(C(F)(F)F)cc(-c3cn[nH]n3)cn2c1Cl [Compound 308, 3-Chloro-6-(2H-[1,2,3]triazol-4-yl)-8-trifluoromethyl-imidazo[1,2-a]pyridine-2-carboxylic Acid (thiophen-2-ylmethyl)-amide] gave an inhibition at 10 µM of 88.2%. O=C(NCc1nccs1)c1nc2c(C(F)(F)F)cc(-c3ccoc3)cn2c1Cl [Compound 415, 3-Chloro-3-furan-3-yl-8-trifluomethyl-imidazo[1,2-a]-pyridine-2-carboxylic Acid (thiazol-2-ylmethyl)-amide] showed an inhibition at 10 µM of 92.6%. In the case of O=C(NCc1ccccc1)c1cc2cc(-c3ccccc3)cc(I)n2n1 [Compound 129, 7-Iodo-5-phenyl-pyrazolo[1,5-a]pyridine-2-carboxylic Acid benzylamide], the inhibition at 10 µM is reported as 43%. With Fc1cccc(C2CCN(Cc3cn4cc(-c5ccoc5)cc(C(F)(F)F)c4n3)C2)c1 (centres unmarked) [Compound 474, 2-[3-(3-Fluoro-phenyl)-pyrroidin-1-ylmethyl]-6-furan-3-yl-8-trifluoromethyl-imidazo[1,2-a]pyridine] the inhibition at 10 µM was 0.7%. With O=C(c1nc2c(C(F)(F)F)cc(-c3ccoc3)cn2c1Cl)N1CCCCC1c1cccc(F)c1 (centres unmarked) [Compound 545, (3-Chloro-6-furan-3-yl-8-trifluoromethyl-imidazo[1,2-a]pyridin-2-yl)-[2-(3-fluoro-phenyl)-piperidin-1-yl)-methanone] the inhibition at 10 µM was 70.2%. With COC(=O)Cc1c(C(=O)N2CCC(c3ccc(F)cc3)C2)nc2c(C(F)(F)F)cc(-c3ccoc3)cn12 (centres unmarked) [Compound 235, {2-[3-(4-Fluoro-phenyl)-pyrrolidine-1-carbonyl]-6-furan-3-yl-8-trifluoromethyl-imidazo[1,2-a]pyridin-3-yl}-acetic Acid Methyl Ester] the inhibition at 10 µM was 96.6%. O=C(c1nc2c(C(F)(F)F)cc(-c3ccoc3)cn2c1Cl)N1CC(NS(=O)(=O)C2CC2)C1 [Compound 498, Cyclopropanesulfonic Acid[1-(3-chloro-6-furan-3-yl-8-trifluoromethyl-imidazo[1,2-a]pyridine-2-carbonyl)-azetidin-3-yl]-amide] gave an inhibition at 10 µM of 95%. For O=C(c1nc2c(C(F)(F)F)cc(-c3ccoc3)cn2c1Cl)N1CCCC(c2ccccc2F)C1 (centres unmarked) [Compound 547, (3-Chloro-6-furan-3-yl-8-trifluoromethyl-imidazo[1,2-a]pyridin-2-yl)-[3-(2-fluoro-phenyl)-piperidin-1-yl)-methanone], the inhibition at 10 µM was 94.7%. Compound O=C(NCc1cccs1)c1nc2c(C(F)(F)F)cc(-c3ccccc3)nn2c1Cl [Compound 249, 3-Chloro-6-phenyl-8-trifluoromethyl-imidazo[1,2-b]pyridazine-2-carboxylic Acid(thiophen-2-ylmethyl)-amide] has an inhibition at 10 µM of 81.4%. In the case of CC(=O)c1ccc(C2=CCN(C(=O)c3nc4c(C(F)(F)F)cc(-c5ccoc5)cn4c3Cl)CC2)s1 [Compound 585, 1-{5-[1-(3-Chloro-6-furan-3-yl-8-trifluoromethyl-imidazo[1,2-a]pyridine-2-carbonyl)-1,2,3,6-tetrahydro-pyridin-4-yl]-thiophen-2-yl}-ethanone], the inhibition at 10 µM is reported as 93.2%. Work on O=C(c1nc2c(C(F)(F)F)cc(-c3ccoc3)cn2c1Cl)N1CCCCC1c1ccccc1F (centres unmarked) [Compound 544, (3-Chloro-6-furan-3-yl-8-trifluoromethyl-imidazo[1,2-a]pyridin-2-yl)-[2-(2-fluoro-phenyl)-piperidin-1-yl)-methanone] yielded an inhibition at 10 µM of 75.4%. Work on O=C(c1nc2c(C(F)(F)F)cc(-c3cn[nH]c3)cn2c1Br)N1CC=C(c2nccs2)C1 [Compound 433, [3-Bromo-6-(1H-pyrazol-4-yl)-8-trifluoromethyl-imidazo[1,2-a]pyridin-2-yl]-(3-thiazol-2-yl-2,5-dihydro-pyrrol-1-yl)-methanone] yielded an inhibition at 10 µM of 99.2%. With O=C(c1nc2c(C(F)(F)F)cc(-c3cn[nH]c3)cn2c1Br)N1CC=C(c2ccoc2)C1 [Compound 436, [3-Bromo-6-(1H-pyrazol-4-yl)-8-trifluoromethyl-imidazo[1,2-a]pyridin-2-yl]-(3-furan-3-yl-2,5-dihydro-pyrrol-1-yl)-methanone] the inhibition at 10 µM was 98%. With O=C(c1nc2c(C(F)(F)F)cc(-c3cn[nH]c3)cn2c1Br)N1CC=C(c2ccc(F)cc2)CC1 [Compound 608, [3-Bromo-6-(1H-pyrazol-4-yl)-8-trifluoromethyl-imidazo[1,2-a]pyridin-2-yl]-[4-(4-fluoro-phenyl)-3,6-dihydro-2H-pyridin-1-yl]-methanone] the inhibition at 10 µM was 62.7%. For COc1cccc(OC)c1C1=CCN(C(=O)c2nc3c(C(F)(F)F)cc(-c4ccoc4)cn3c2Cl)CC1 [Compound 562, (3-Chloro-6-furan-3-yl-8-trifluoromethyl-imidazo[1,2-a]pyridin-2-yl)-[4-(2,6-dimethoxy-phenyl)-3,6-dihydro-2H-pyridin-1-yl)-methanone], the inhibition at 10 µM was 13.4%. Work on O=C(c1nc2c(C(F)(F)F)cc(-c3ccoc3)cn2c1Cl)N1CC=C(c2cccnc2F)CC1 [Compound 581, (3-Chloro-6-furan-3-yl-8-trifluoromethyl-imidazo[1,2-a]pyridin-2-yl)-(2-fluoro-3′,6′-dihydro-2′H-[3,4′]bipyridinyl-1′-yl)-methanone] yielded an inhibition at 10 µM of 98.2%. For CN(C)c1cccc(-c2cc(C(F)(F)F)c3nc(C(=O)NCc4cccs4)c(Cl)n3c2)c1 [Compound 286, 3-Chloro-6-(3-dimethylamino-phenyl)-8-trifluoromethyl-imidazo[1,2-a]pyridine-2-carboxylic Acid (thiophen-2-ylmethyl)-amide], the inhibition at 10 µM was 57.9%. Work on O=C(c1cn2cc(-c3cn[nH]c3)cc(C(F)(F)F)c2n1)N1CCC(c2ccccc2F)C1 (centres unmarked) [Compound 377, [3-(2-Fluoro-phenyl)-pyrrolidin-1-yl]-[6-(1H-pyrazol-4-yl)-8-trifluoromethyl-imidazo[1,2-a]pyridin-2-yl]-methanone] yielded an inhibition at 10 µM of 94.2%. Compound O=C(c1nc2c(C(F)(F)F)cc(-c3ccoc3)cn2c1Cl)N1CCC(Nc2ccccc2)C1 (centres unmarked) [Compound 599, (3-Chloro-6-furan-3-yl-8-trifluoromethyl-imidazo[1,2-a]pyridin-2-yl)-(3-phenylamino-pyrrolidin-1-yl)-methanone] has an inhibition at 10 µM of 91.1%. With O=C(NCCc1ccc(F)cc1)c1nc2c(C(F)(F)F)cc(-c3ccoc3)cn2c1Cl [Compound 407, 3-Chloro-6-furan-3-yl-8-trifluoromethyl-imidazo[1,2-a]-pyridine-2-carboxylic acid [2-(4-fluoro-phenyl)-ethyl]-amide] the inhibition at 10 µM was 88%. CC(C)c1cc(-c2ccccc2)cn2cc(C(=O)N3CCC(c4cccc(F)c4)C3)nc12 (centres unmarked) [Compound 646, [3-(3-Fluoro-phenyl)-pyrrolidin-1-yl]-(8-isopropyl-6-phenyl-imidazo[1,2-a]pyridin-2-yl)-methanone] showed an inhibition at 10 µM of 42.4%. O=C(c1nc2c(C(F)(F)F)cc(-c3cn[nH]c3)cn2c1Cl)N1CCC(c2ccccc2)C1 (centres unmarked) [Compound 464, [3-Chloro-6-(1H-pyrazol-4-yl)-8-trifluoromethyl-imidazo[1,2-a]pyridin-2-yl]-(3-phenyl-pyrrolidin-1-yl)-methanone] gave an inhibition at 10 µM of 93.7%. In the case of C=C(C)c1cc(-c2ccccc2)cn2c(Cl)c(C(=O)NCc3cccs3)nc12 [Compound 358, 3-Chloro-8-isopropenyl-6-phenyl-imidazo [1,2-a]pyridine-2-carboxylic Acid (thiophen-2-ylmethyl)-amide], the inhibition at 10 µM is reported as 77.3%. With O=C(c1nc2c(C(F)(F)F)cc(-c3ccoc3)cn2c1Cl)N1CCC(c2cccc(Cl)c2)C1 (centres unmarked) [Compound 460, (3-Chloro-6-furan-3-yl-8-trifluoromethyl-imidazo[1,2-a]pyridin-2-yl)-[3-(3-chloro-phenyl)-pyrrolidin-1-yl]-methanone] the inhibition at 10 µM was 88%. O=C(c1nc2c(C(F)(F)F)cc(-c3ccoc3)cn2c1Cl)N1CCC(c2cccs2)C1 (centres unmarked) [Compound 423, (3-Chloro-6-furan-3-yl-8-trifluoromethyl-imidazo[1,2-a]pyridin-2-yl)-(3-thiophen-2-yl-pyrrolidin-1-yl)-methanone] gave an inhibition at 10 µM of 99.8%. For O=C(c1nc2c(C(F)(F)F)cc(-c3ccoc3)cn2c1Cl)N1CCN(c2cccnc2)CC1 [Compound 543, (3-Chloro-6-furan-3-yl-8-trifluoromethyl-imidazo[1,2-a]pyridin-2-yl)-(4-pyridin-3-yl-piperazin-1-yl)-methanone], the inhibition at 10 µM was 91.2%. Compound O=C(c1cn2cc(-c3ccccc3)cc(C(F)(F)F)c2n1)N1CCC(c2cccc(F)c2)C1 (centres unmarked) [Compound 639, [3-(3-Fluoro-phenyl)-pyrrolidin-1-yl]-(6-phenyl-8-trifluoromethyl-imidazo[1,2-a]pyridin-2-yl)-methanone] has an inhibition at 10 µM of 71.9%. O=C(NCc1cccs1)c1nc2c(C(F)(F)F)cc(-c3ccco3)cn2c1Cl [Compound 152, 3-Chloro-6-furan-2-yl-8-trifluoromethyl-imidazo[1,2-a]pyridine-2-carboxylic acid (thiophen-2-ylmethyl)-amide] showed an inhibition at 10 µM of 92.5%. For O=C(c1nc2c(C(F)(F)F)cc(-c3cn[nH]c3)cn2c1Br)N1CCC(c2cccc(F)c2)C1 (centres unmarked) [Compound 447, (3-Bromo-6-(1H-pyrazol-4-yl)-8-trifluoromethyl-imidazo[1,2-a]pyridin-2-yl)-(3-(3-fluoro-phenyl)-pyrrolidin-1-yl)-methanone], the inhibition at 10 µM was 92.8%. For O=C(NCc1cccs1)c1cc2cc(-c3ccccc3)cc(NCCO)n2n1 [Compound 154, 7-(2-Hydroxy-ethylamino)-5-phenyl-pyrazolo[1,5-a]pyridine-2-carboxylic acid (thiophen-2-ylmethyl)-amide], the inhibition at 10 µM was 58.8%.
